Results taken from US20150065436A1, “INHIBITING INTERACTION BETWEEN HIF-1ALPHA AND p300/CBP WITH HYDROGEN BOND SURROGATE-BASED HELICES” (UNIVERSITY OF SOUTHERN CALIFORNIA, priority 2013, published 2015).

Columns and labels:
Type in all cases: cell-based, human
[1] = system: VEGFA; test: Real-time qRT-PCR of VEGFA expression in hypoxic HeLa cells; settings: for reduction of VEGF expression levels: DFO hypoxia
[2] = system: SLC2A1 (GLUT1); test: Real-time qRT-PCR of SLC2A1 (GLUT1) expression in hypoxic HeLa cells; settings: hypoxia, dose-dependent (10 and 50 μM tested)
[3] = system: LOX; test: Real-time qRT-PCR of LOX expression in hypoxic HeLa cells; settings: hypoxia
[4] = system: HeLa cells; test: MTT cell viability assay; settings: 1 to 100 μM, 24 hours
Procedure: HeLa cells were plated in a 96-well plate at a density of 6,000 cells/well and allowed to form a monolayer before adding the compounds. […] After 3 hours of incubation, the media was removed and purple crystals were dissolved in 100 μL of dimethyl sulfoxide (DMSO). The absorbance was measured at 570 nm with a correction at 690 nm in order to quantify the amount of formed purple formazan. All experiments were performed in quadruplicate.
HBS 1 is an efficient modulator of contacts between HIF-1α and p300/CBP. Known inhibitors of this interaction typically function allosterically, by inducing unfolding of p300/CBP through abstraction of zinc ions. This could lead to non-specific abstraction of metal ions from other biomolecules (Block et al., “Direct Inhibition of Hypoxia-Inducible Transcription Factor Complex With Designed Dimeric Epidithiodiketopiperazine,” J. Am. Chem. Soc. 131(50):18078-88 (2009), which is hereby incorporated by reference in its entirety). It was predicted that the HIF-1α mimetics should manifest their function in a more specific manner, and should not be generally cytotoxic. Cell viability assays confirm this hypothesis. […] Thus, HBS 2 may not just be a straightforward lower affinity analog of HBS 1 as designed.

| SMILES | reduction of VEGF expression levels ([1]; 10 μM) | reduction of VEGF expression levels ([1]; 50 μM) | inhibition of VEGF expression under two hypoxia mimetic conditions ([1]; DFO and prolonged incubation in an anaerobic pouch) | inhibition of SLC2A1 expression [2] | downregulation of LOX expression ([3]; 10 μM (first of two doses)) | downregulation of LOX expression ([3]; 50 μM (second of two doses)) | cytotoxicity [4] | activity on LOX expression ([3]; concentration not given) |
| --- | --- | --- | --- | --- | --- | --- | --- | --- |
| CC(C)C[C@H](NC(=O)[C@H](C)NC(=O)[C@H](CCCNC(=N)N)NC(=O)[C@H](C)N1CC=CCCC(=O)N[C@@H](CCC(=O)O)C(=O)N[C@@H](CC(C)C)C1=O)C(=O)N[C@@H](CC(=O)O)C(=O)N[C@@H](CCC(N)=O)C(N)=O [HBS 1, XELA*RALDQ-NH2] | 50% | greater than 60% | dose-dependent inhibition | 50-60% | 55% | 70% | essentially non-cytotoxic | – |
| CC(C)C[C@@H]1NC(=O)[C@H](CCC(=O)O)NC(=O)CCC=CCN([C@@H](C)C(=O)N[C@@H](CCCNC(=N)N)C(=O)N[C@@H](C)C(=O)N[C@@H](C)C(=O)N[C@@H](CC(=O)O)C(=O)N[C@@H](CCC(N)=O)C(N)=O)C1=O [HBS 2, XELA*RAADQ-NH2] | – | 10% | – | no activity | – | – | higher level of cytotoxicity than HBS 1 | no activity |
